Measurements: patent publication US20100204182A1, “ECTONUCLEOTIDASE INHIBITORS” (RHEINISCHE FRIEDRICH-WILHELMS-UNIVERSITAT BONN, priority 2006, published 2010)
Where two headings read alike, the source gives them in different places.

Columns and labels:
[1] = target: hP2Y12 (Homo sapiens, UniProt Q9H244); experiment: Inhibition of [3H]PSB-0413 binding at hP2Y12; details: mean ± SEM, read-out: hP2Y12 % Inhibition of [^3H]PSB-0413 Binding at 10 μM, n = 3
Description: In table 2 inhibition data of selected examples at human P2Y receptor subtypes were collected. It can be seen that no compound was identified that inhibited P2Y receptors at high concentrations of 100 μM and 10 μM, respectively.

[2] = target: T1, human NTPDase1 (Homo sapiens, UniProt P49961); experiment: NTPDase inhibition assay by capillary electrophoresis (CE), NTPDase1; type: biochemical; details: ATP 320 μM; for inhibition at 1000 µM: 1 mM compound; for Ki: CE method, Km 17 μM, read-out: NTPDase1 Ki [μM] ± SEM
T1 sequence (P49961 1-510): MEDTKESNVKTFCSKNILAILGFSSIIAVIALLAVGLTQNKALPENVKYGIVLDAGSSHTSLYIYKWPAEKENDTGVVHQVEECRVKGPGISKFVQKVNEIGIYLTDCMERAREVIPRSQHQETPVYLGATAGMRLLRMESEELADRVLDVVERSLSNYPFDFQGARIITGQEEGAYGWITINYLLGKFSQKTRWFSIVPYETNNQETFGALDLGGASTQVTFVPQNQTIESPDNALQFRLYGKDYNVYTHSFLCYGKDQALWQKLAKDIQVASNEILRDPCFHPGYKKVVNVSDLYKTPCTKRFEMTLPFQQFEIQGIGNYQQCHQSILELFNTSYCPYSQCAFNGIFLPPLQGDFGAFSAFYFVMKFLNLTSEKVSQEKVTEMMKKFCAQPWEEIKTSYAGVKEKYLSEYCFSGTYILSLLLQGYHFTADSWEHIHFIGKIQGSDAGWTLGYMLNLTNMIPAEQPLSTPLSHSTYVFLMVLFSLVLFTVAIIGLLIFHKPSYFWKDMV
Description: (§1) The applied enzyme inhibition assay has been described (Iqbal J, Vollmayer P, Braun N, Zimmermann H, Müller C E. A capillary electrophoresis method for the characterization of ecto-nucleoside triphosphate diphosphohydrolases (NTPDases) and the analysis of inhibitors by in-capillary enzymatic microreaction. Purinergic Signalling 2005, 1, 349-358).
(§2) A. CE instrumentation: All experiments were carried out using a P/ACE MDQ capillary electrophoresis system (Beckman Instruments, Fullerton, Calif., USA) equipped with a UV detection system coupled with a diode-array detector (DAD). Data collection and peak area analysis were performed by the P/ACE MDQ software 32 KARAT obtained from Beckman Coulter. The capillary temperature was kept constant at 25° C. The temperature of the sample storing unit was also adjusted to 25° C. The electrophoretic separations were carried out using an eCAP polyacrylamide-coated fused-silica capillary [(30 cm (20 cm effective length)×50 μm internal diameter (I.D.)×360 μm outside diameter (O.D.), obtained from CS-Chromatographie (Langerwehe, Germany)]. The separation was performed using an applied current of −60 μA and a data acquisition rate of 8 Hz. Analytes were detected using direct UV absorbance at 210 nm. The capillary was conditioned by rinsing with water for 2 min and subsequently with buffer (phosphate 50 mM, pH 6.5) for 1 min. Sample injections were made at the cathodic side of the capillary.
(§3) B. NTPDase inhibition assay by capillary electrophoresis: Enzyme inhibition assays were carried out at 37° C. in a final volume of 100 μl. The reaction mixture contained 320 μM of ATP (substrate) in reaction buffer. The reaction buffer contained 140 mM NaCl, 5 mM KCl, 1 mM MgCl2, 2 mM CaCl2, and 10 mM Hepes, pH 7.4.
(§4) Different concentrations of inhibitors dissolved in DMSO or water (10 μl) were added and the reaction was initiated by the addition of 10 μl of the appropriately diluted recombinant or native human or rat NTPDase enzyme. […] The mixture (final volume 100 μl) was incubated for 15 min and terminated by heating at 99° C. for 4 min. Aliquots of the reaction mixture (50 μl) were then transferred to mini-CE vials and injected into the CE instrument under the conditions described above. 20 μM of UMP was used as internal standard. Inhibition of NTPDase was tested over a range of 6 to 8 concentrations of test compound spanning 3 orders of magnitude to determine K1 values. Each analysis was repeated two times (in triplicates) in two separate experiments. The Cheng-Prusoff equation was used to calculate the K1 values from the IC50 values, determined by the non-linear curve fitting program PRISM® 3.0 (GraphPad, San Diego, Calif., USA). In table 1K, values of selected compounds as inhibitors of human NTPDases are given.

[3] = target: T2, human NTPDase3 (Homo sapiens, UniProt O75355); experiment: NTPDase inhibition assay by capillary electrophoresis (CE), NTPDase3; type: biochemical; details: ATP 320 μM; for inhibition at 1000 µM: 1 mM compound; for Ki: CE method, Km 75 μM, read-out: NTPDase3 Ki [μM] ± SEM
T2 sequence (O75355 1-529): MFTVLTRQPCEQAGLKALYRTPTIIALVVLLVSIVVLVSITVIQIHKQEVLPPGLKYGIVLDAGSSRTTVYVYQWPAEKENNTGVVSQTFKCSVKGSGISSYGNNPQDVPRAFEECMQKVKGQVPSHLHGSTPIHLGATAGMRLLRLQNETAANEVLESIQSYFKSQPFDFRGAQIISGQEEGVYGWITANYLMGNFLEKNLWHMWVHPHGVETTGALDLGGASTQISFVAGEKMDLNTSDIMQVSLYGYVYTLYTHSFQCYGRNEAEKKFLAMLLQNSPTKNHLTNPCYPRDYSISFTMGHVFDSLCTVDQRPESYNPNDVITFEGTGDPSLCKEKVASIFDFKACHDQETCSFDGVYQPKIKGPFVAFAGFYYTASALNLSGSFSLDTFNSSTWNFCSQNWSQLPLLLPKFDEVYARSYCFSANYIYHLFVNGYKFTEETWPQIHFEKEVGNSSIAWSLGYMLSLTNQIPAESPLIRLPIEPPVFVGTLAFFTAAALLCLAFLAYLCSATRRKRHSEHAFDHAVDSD
Description: as §1, §2, §3, §4

[4] = target: T3, human NTPDase8 (Homo sapiens, UniProt Q5MY95); experiment: NTPDase inhibition assay by capillary electrophoresis (CE), NTPDase8; type: biochemical; details: for inhibition at 1000 µM: human NTPDase8, 1 mM compound, ATP 320 μM; for Ki: read-out: NTPDase8 Ki [μM] ± SEM
T3 sequence (Q5MY95 1-495): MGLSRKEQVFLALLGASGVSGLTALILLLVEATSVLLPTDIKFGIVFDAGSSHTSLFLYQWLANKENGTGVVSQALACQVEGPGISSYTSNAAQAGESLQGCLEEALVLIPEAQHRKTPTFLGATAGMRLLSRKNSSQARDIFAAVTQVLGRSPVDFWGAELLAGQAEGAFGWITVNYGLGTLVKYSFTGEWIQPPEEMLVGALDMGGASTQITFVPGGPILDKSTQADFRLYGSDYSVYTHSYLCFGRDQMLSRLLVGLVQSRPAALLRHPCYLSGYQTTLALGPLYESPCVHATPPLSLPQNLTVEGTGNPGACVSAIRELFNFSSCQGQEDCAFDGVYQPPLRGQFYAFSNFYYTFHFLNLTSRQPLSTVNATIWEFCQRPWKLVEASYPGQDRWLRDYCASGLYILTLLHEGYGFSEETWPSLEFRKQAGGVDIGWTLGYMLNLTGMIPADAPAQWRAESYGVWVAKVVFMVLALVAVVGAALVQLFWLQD
Description: as §1, §2, §3, §4

[5] = target: T4, human NTPDase2 (Homo sapiens, UniProt Q9Y5L3); experiment: NTPDase inhibition assay by capillary electrophoresis (CE), NTPDase2; type: biochemical; details: for inhibition at 1000 µM: read-out: NTPDase2 inhibition (%) at 1 mM
T4 sequence (Q9Y5L3 1-495): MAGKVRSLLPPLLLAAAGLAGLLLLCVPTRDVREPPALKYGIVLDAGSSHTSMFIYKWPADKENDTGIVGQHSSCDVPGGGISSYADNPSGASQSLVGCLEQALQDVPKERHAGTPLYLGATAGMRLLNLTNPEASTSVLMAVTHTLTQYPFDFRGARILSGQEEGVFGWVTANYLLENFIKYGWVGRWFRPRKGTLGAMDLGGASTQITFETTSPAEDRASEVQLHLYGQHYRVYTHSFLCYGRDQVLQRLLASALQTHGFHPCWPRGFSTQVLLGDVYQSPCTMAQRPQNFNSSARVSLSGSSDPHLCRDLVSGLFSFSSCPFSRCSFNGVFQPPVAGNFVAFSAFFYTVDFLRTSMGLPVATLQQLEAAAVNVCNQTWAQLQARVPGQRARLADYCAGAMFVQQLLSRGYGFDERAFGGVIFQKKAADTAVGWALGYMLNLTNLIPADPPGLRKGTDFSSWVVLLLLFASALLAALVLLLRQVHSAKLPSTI

[6] = target: rP2Y6 (Rattus norvegicus, UniProt Q63371); experiment: Inhibition of UDP binding at rP2Y6; details: read-out: rP2Y6 % inhibition of UDP binding at 100 μM, n = 3, mean ± SEM
[7] = human NTPDase2, CE method, ATP 320 μM, Km 70 μM, read-out: NTPDase2 Ki [μM] ± SEM

Chain of hP2Y12 (Q9H244 whole entry): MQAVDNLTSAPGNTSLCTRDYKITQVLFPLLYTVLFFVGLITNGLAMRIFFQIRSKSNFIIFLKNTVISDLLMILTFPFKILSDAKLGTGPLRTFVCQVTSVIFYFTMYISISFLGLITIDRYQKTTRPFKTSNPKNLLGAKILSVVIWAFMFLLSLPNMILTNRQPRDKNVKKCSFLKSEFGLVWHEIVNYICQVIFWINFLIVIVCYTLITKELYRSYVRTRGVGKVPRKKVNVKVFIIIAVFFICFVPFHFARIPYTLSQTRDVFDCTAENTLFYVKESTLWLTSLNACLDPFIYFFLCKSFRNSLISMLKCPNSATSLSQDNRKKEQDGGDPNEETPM
Chain of rP2Y6 (Q63371 whole entry): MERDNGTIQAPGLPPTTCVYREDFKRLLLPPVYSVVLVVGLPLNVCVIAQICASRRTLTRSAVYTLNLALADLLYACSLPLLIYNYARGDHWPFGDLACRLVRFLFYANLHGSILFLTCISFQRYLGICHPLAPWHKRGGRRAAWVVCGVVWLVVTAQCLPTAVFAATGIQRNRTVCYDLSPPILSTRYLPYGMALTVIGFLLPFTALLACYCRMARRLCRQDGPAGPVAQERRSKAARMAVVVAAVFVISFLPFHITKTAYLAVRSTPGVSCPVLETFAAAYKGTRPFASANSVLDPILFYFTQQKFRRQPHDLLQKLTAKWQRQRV

Structure (SMILES) | inhibition at 10 µM [1] [%] | inhibition at 1000 µM [2] [%] | Ki [2] [µM] | inhibition at 1000 µM [3] [%] | Ki [3] [µM] | inhibition at 1000 µM [4] [%] | Ki [4] [µM] | Ki [5] [µM] | inhibition at 1000 µM [5] [%] | Ki [5, 7] [µM] | inhibition at 100 µM [6] [%] | NTPDase2 inhibition (%) at 1 mM ([5]; human NTPDase2, 1 mM compound, ATP 320 μM) [%]
CCOP(=O)(Cc1ccc(NC(=O)CNC(=O)[C@H]2O[C@@H](n3cnc4c(N)ncnc43)C(O)C2O)cc1)OCC (stereo in doubt) [CC1, 4-[2-((2S,3R,4S,5R)-5-(6-Amino-9H-purin-9-yl)-3,4-dihydroxy-tetrahydro-furane-2-carboxamido)ethaneamido]benzylphosphonic acid diethylester] | -4 ± 6 | 0 | > 50 | 0 | > 200 | 0 | > 100 | > 200 | 0 | – | – | –
CCOP(=O)(Cc1ccc(NC(=O)CCNC(=O)[C@H]2O[C@@H](n3cnc4c(N)ncnc43)C(O)C2O)cc1)OCC (stereo in doubt) [CC2, 4-[3-((2S,3R,4S,5R)-5-(6-Amino-9H-purin-9-yl)-3,4-dihydroxy-tetrahydro-furane-2-carboxamido)propaneamido]benzylphosphonic acid diethylester] | 1 ± 6 | – | 154 ± 37 | 0 | > 200 | – | 255 ± 25.3 | – | – | 1440 ± 64 | – | –
CCOP(=O)(Cc1ccc(NC(=O)CCCNC(=O)[C@H]2O[C@@H](n3cnc4c(N)ncnc43)C(O)C2O)cc1)OCC (stereo in doubt) [CC3, 4-[4-((2S,3R,4S,5R)-5-(6-Amino-9H-purin-9-yl)-3,4-dihydroxy-tetrahydro-furane-2-carboxamido)butaneamido]benzylphosphonic acid diethylester] | 5 ± 1 | – | 161 ± 24 | 0 | > 200 | 0 | > 100 | – | – | 213 ± 34 | – | –
CCOP(=O)(OCC)C(NC(=O)CCNC(=O)[C@H]1O[C@@H](n2cnc3c(N)ncnc32)C(O)C1O)P(=O)(OCC)OCC (stereo in doubt) [CC4, 3-[(2S,3R,4S,5R)-5-(6-Amino-9H-purin-9-yl)-3,4-dihydroxy-tetrahydrofurane-2-carboxamido]propaneamidomethylenediphosphonic acid tetraethylester] | – | 0 | > 50 | – | – | – | – | > 200 | 0 | – | 5 ± 8 | –
CCOP(=O)(OCC)C(NC(=O)CCCNC(=O)[C@H]1O[C@@H](n2cnc3c(N)ncnc32)C(O)C1O)P(=O)(OCC)OCC (stereo in doubt) [CC5, 4-[(2S,3R,4S,5R)-5-(6-Amino-9H-purin-9-yl)-3,4-dihydroxy-tetrahydrofurane-2-carboxamido]butaneamidomethylenediphosphonic acid tetraethylester] | – | 0 | > 50 | – | – | – | – | > 200 | 0 | – | -5 ± 2 | –
CCOP(=O)(Cc1ccc(NC(=O)[C@H]2O[C@@H](n3ccc(=O)[nH]c3=O)C(O)C2O)cc1)OCC (stereo in doubt) [Compound 1, 4-[(2S,3R,4S,5R)-5-(2,4-Dioxo-3,4-dihydropyrimidin-1(2H)-yl)-3,4-dihydroxy-tetrahydrofurane-2-carboxamido]benzylphosphonic acid diethylester] | – | – | – | – | – | – | – | 117 ± 15 | – | – | -12 ± 3 | –
CCOP(=O)(CC(=O)OCCNC(=O)CNC(=O)[C@H]1O[C@@H](n2ccc(=O)[nH]c2=O)[C@@H](O)[C@H]1O)OCC [Compound 9, 2-[(2S,3R,4S,5R)-5-(2,4-Dioxo-3,4-dihydropyrimidin-1(2H)-yl)-3,4-dihydroxy-tetrahydro-furane-2-carboxamido]ethaneamido-ethyloxycarbonyl methylenephosphonic acid diethylester] | – | – | – | – | – | – | – | – | – | ~165 | – | 54
